Results: US7626042B2, “O-substituted hydroxyaryl derivatives” (Institute of Medicinal Molecular Design, Inc., priority 2002, dated 2009)

Tested on: NF-κB activation
Assay: Inhibitory activity against NF-κB activation, luciferase reporter assay under TNF-α stimulation
Assay type: cell-based, human
Conditions: HepG2 cells, TNF-α 40 ng/ml, 4 hours; for inhibition at 1 µg/mL / inhibition at 10 µg/mL: Homo sapiens, read-out: Inhibitory Ratio of NF-κ B Activation(%)
Outline: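 HepG2 cells transfected with firefly luciferase reporter carrying five tandem NF-κB sites, incubated 6 to 24 hours, then cultured 4 hours with TNF-α (40 ng/ml) plus test compound. Luminescent luciferase read-out; inhibition expressed relative to activity without compound.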

Row | SMILES | Inhibitory Ratio of NF-κ B Activation(%) (Drug Concentration 1 μg/mL) | Inhibitory Ratio of NF-κ B Activation(%) (Drug Concentration 10 μg/mL) | inhibition at 1 µg/mL (Drug Concentration 1 μg/mL) [%] | inhibition at 10 µg/mL (Drug Concentration 10 μg/mL) [%]
1 | CC(=O)OC[C@H]1O[C@@H](Oc2ccc(Cl)cc2C(=O)Nc2cc(C(F)(F)F)cc(C(F)(F)F)c2)[C@H](OC(C)=O)[C@@H](OC(C)=O)[C@@H]1OC(C)=O [Compound 112] | 47.2 | 49.5 | – | –
2 | O=C(O)CN(CC(=O)O)C(=O)OCOc1ccc(Cl)cc1C(=O)Nc1cc(C(F)(F)F)cc(C(F)(F)F)c1 [Compound 106] | 61.0 | 83.5 | – | –
3 | O=C(Cc1ccc2c(c1)OCO2)Oc1ccc(Cl)cc1C(=O)Nc1cc(C(F)(F)F)cc(C(F)(F)F)c1 [Compound 9] | 94.6 | 97.3 | – | –
4 | CCOC(=O)C1CCN(C(=O)OCOc2ccc(Cl)cc2C(=O)Nc2cc(C(F)(F)F)cc(C(F)(F)F)c2)CC1 [Compound 103, 5-Chloro-2-({[4-(ethoxycarbonyl)piperidin-1-yl]carbonyl}oxy)methoxy-N-[3,5-bis(trifluoromethyl)phenyl]benzamide] | – | – | 40.4 | 45.9
5 | CN(C)S(=O)(=O)Oc1ccc(Cl)cc1C(=O)Nc1cc(C(F)(F)F)cc(C(F)(F)F)c1 [Compound 48] | 37.9 | 90.4 | – | –
6 | O=C(Nc1cc(C(F)(F)F)cc(C(F)(F)F)c1)c1cc(Cl)ccc1OCN1C(=O)c2ccccc2C1=O [Compound 111] | 94.3 | 96.0 | – | –
7 | O=C(Nc1cc(C(F)(F)F)ccc1C(F)(F)F)c1ccccc1OC(=O)N1CCOCC1 [Compound 132] | 32.3 | – | – | –
8 | O=C(O)COc1ccc(Cl)cc1C(=O)Nc1cc(C(F)(F)F)cc(C(F)(F)F)c1 [Compound 109] | 21.0 | 95.9 | – | –
9 | CC(Oc1ccccc1)C(=O)Oc1ccc(Cl)cc1C(=O)Nc1cc(C(F)(F)F)cc(C(F)(F)F)c1 (stereo not shown) [Compound 15] | 97.9 | 99.1 | – | –
10 | CCOc1ccc(Cl)cc1C(=O)Nc1cc(C(F)(F)F)cc(C(F)(F)F)c1 [Compound 95] | 31.3 | 71.4 | – | –
11 | COc1ccc(Cl)cc1C(=O)Nc1cc(C(F)(F)F)cc(C(F)(F)F)c1 [Compound 93] | 44.3 | 24.0 | – | –
12 | COC(=O)Oc1ccc(Cl)cc1C(=O)Nc1cc(C(F)(F)F)cc(C(F)(F)F)c1 [Compound 43, 5-Chloro-2-(methoxycarbonyl)oxy-N-[3,5-bis(trifluoromethyl)phenyl]benzamide] | – | – | 94.9 | 97.6
13 | COC(=O)CC1(C(=O)OC)Oc2ccc(Cl)cc2C(=O)N1c1cc(C(F)(F)F)cc(C(F)(F)F)c1 (stereo not shown) [Compound 117] | – | – | 34.8 | 56.7
14 | O=C(Nc1cc(C(F)(F)F)cc(C(F)(F)F)c1)c1cc(Cl)ccc1OCCO [Compound 107] | 47.4 | 52.1 | – | –
15 | O=C(Nc1cc(C(F)(F)F)ccc1Cl)c1cc(Br)ccc1OP(=O)([O-])O.[Na+] [Compound 136] | >99.9 | – | – | –
16 | O=C(Nc1cc(C(F)(F)F)cc(C(F)(F)F)c1)c1cc(Cl)ccc1OC(=O)N1CCOCC1 [Compound 71] | 70.6 | 78.0 | – | –
17 | O=C(Nc1cc(C(F)(F)F)cc(C(F)(F)F)c1)c1cc(Br)ccc1OC(=O)N1CCOCC1 [Compound 77, 5-Bromo-2-(morpholinocarbonyl)oxy-N-[3,5-bis(trifluoromethyl)phenyl]benzamide] | – | – | 69.7 | 31
18 | CC(C)C[C@H](NC(=O)[C@H](CCCCNC(=O)OC(C)(C)C)NC(=O)OC(C)(C)C)C(=O)Oc1ccc(Cl)cc1C(=O)Nc1cc(C(F)(F)F)cc(C(F)(F)F)c1 [Compound 39, 2-{N-[N^α,N^ε-di(tert-butoxycarbonyl)-L-lysyl]-L-leucyl}oxy-5-chloro-N-[3,5-bis(trifluoromethyl)phenyl]benzamide] | – | – | 96.7 | 98.4
